This assay relates to P. falciparum 3D7 growth, pLDH absorbance. Briefly: P. falciparum 3D7 growth inhibition, dose response, strain 3D7 (AID 2305).

Drawing on PubChem BioAssay AID2305 (GlaxoSmithKline (GSK), 2010), this text covers IC50 for 62 compounds.

Take `COc1cc2nc(N3CCC(CNC(=O)c4ccc(-c5ccc(C#N)cc5)cc4)CC3)nc(N)c2cc1OC`: the IC50 came out at 800 nM. In turn, `O=C(NC1CCN(Cc2ccccc2)CC1)c1ccc(-c2nc3cc4ccccc4cc3[nH]2)s1` gave an IC50 of 600 nM. As to `CC(O)C1CCCCN1C(=O)c1cccc(-c2ccc(-c3nc4ccc(F)cc4[nH]3)cc2)c1` (configuration not stated), the IC50 is 740 nM. The IC50 values of the last two compounds are within 1.5-fold of each other. The figure for `CCCC(C)Nc1nc(C)cc(N[C@@H](CC(C)C)C(=O)NCc2ccc(C)cc2)n1` (some centres not stated) is 1010 nM; for `Cc1cc(C2CCN(CCCCNC(=O)c3ccc(NC(=O)c4ccc(Cl)cc4)cc3)CC2)c(C)cc1OCc1ccccn1` it is 800 nM; for `Cc1nc(-c2cccc(Nc3ccnc4cc(-c5nccs5)ccc34)c2)no1` it is 320 nM. Under `Fc1ccc(-c2oc(C3CCN(CCc4ccc(-c5nc(=S)o[nH]5)cc4)CC3)nc2COCC(F)(F)F)cc1` stands 420 nM; under `COc1ccc(S(=O)(=O)Nc2cc(C)cc(Br)c2OC)cc1N1CCN(C(=O)C(Cl)(Cl)Cl)CC1`, 870 nM. The figure for `COC(=O)c1cccc(NC(=O)NC2CCN(c3ccnc(Nc4ccc(F)cc4)n3)C2)c1` (configuration not stated) is 500 nM.

`O=C(Nc1ccccc1)c1cccc(Nc2nccc(Nc3ccc(Oc4ccccc4)cc3)n2)c1` yielded an IC50 of 1550 nM. Under `CCCNCc1ccc(-c2ccc(CN(CCOC)C(=O)c3cscn3)cc2)nc1` stands 180 nM; under `OC[C@H](Nc1nc(C(Oc2ccccc2)c2ccccc2)nc2[nH]ncc12)c1ccccc1` (some centres not stated), 850 nM.

Take `CCc1ccc(CN2CCC(CNC(=O)c3cc(-c4ccccc4F)cs3)C2)cc1` (configuration not stated): the IC50 amounted to 900 nM. Under `CCn1c(Sc2ccc(C#N)c([N+](=O)[O-])c2)nnc1-c1ccc(Cl)cc1` stands 550 nM. The figure for `COc1ccc2ncc(F)c(CCN3C[C@H](CNCc4ccc5ccccc5c4)[C@H](O)C3)c2n1` is 500 nM; for `Cc1cc(NC(=O)NCCN2CCC(NS(=O)(=O)c3ccccc3Cl)C2)c2ccccc2n1` (configuration not stated) it is 820 nM; for `CCOc1c(CNCCCNc2nc3ccccc3[nH]2)cc(I)cc1OC` it is 660 nM.

`Cc1ccc(F)c(NC(=O)c2c(-c3c(F)cccc3Cl)noc2C)c1` showed an IC50 of 930 nM. In turn, `Clc1cccc(CNC2CCN(CC3CCCCC3)CC2)c1` showed an IC50 of 910 nM. The IC50 values of the last two compounds are within 1.5-fold of each other. Compound `O=C(Nc1ccc([N+](=O)[O-])cc1O)Nc1ccccc1Oc1ccccc1` came in with an IC50 of 930 nM.

For `O=C1COC2(CN1CC1CCN(Cc3ccc(O)c(Cl)c3)C1)c1ccccc1-c1ccccc12` (configuration not stated), the IC50 stood at 1060 nM.

Take `Cc1cc(N[C@@H](C)C(=O)Nc2ccccc2)nc(NCCc2ccc(F)cc2)n1`: the half-maximal inhibitory concentration (IC50) amounted to 1110 nM. `Cc1cc(N[C@@H](Cc2ccccc2)C(=O)NC2CCCC2)nc(NCC2CCCCC2)n1` registered an IC50 of 1170 nM. The figure for `CN(C)c1ccc(OCCCCCCOc2ccccc2)cc1` is 500 nM; for `Cc1cccc2[nH]c(-c3ccc(-c4cccc(CN5CCN(CCN6CCOCC6)CC5)c4)s3)nc12` it is 150 nM; for `NC1=NC2(CCCC2)N(c2ccc(Cl)cc2)C(N)=N1` it is 410 nM. `CN(C)CCCNCCS(=O)(=O)c1cccc(Nc2ccc(-c3cccc(N(C)C)c3)cn2)c1`: the IC50 was determined as 860 nM. The figure for `CN(C)C(=O)CCCn1c(CNCCCNc2cc(=O)c3ccccc3[nH]2)cc2c(Cl)cc(Cl)cc21` is 1190 nM; for `Cc1ccc(C(=O)Nc2ccc(Nc3ccnc4cc(-c5nccs5)ccc34)cc2O)cc1` it is 50 nM.

The compound `COc1cc(Cc2cnc(N)nc2N)cc(OC)c1OCCCCCN1C(=O)c2ccccc2C1=O` yielded an IC50 of 620 nM. Against the preceding compound, the IC50 is about 12-fold higher.

In the case of `CC1(C)C=C(c2ccncc2)c2cc(Cl)ccc2O1`, the IC50 came to 430 nM. As for `NC1CCN(Cc2ccc(-c3cccc(-c4nc5ccc(F)cc5[nH]4)c3)cc2)C1` (configuration not stated), the IC50 amounted to 760 nM. Under `Cc1cnc(CN(Cc2ccc(-c3ccc(CNCCc4ccc(S(C)(=O)=O)cc4)cn3)cc2)C(=O)c2ccc([N+](=O)[O-])c(C)c2)cn1` stands 920 nM; under `COc1ccc(-c2ccc(NC(=O)c3ccc(Cl)cc3)cc2)cc1CN1CCNCC1`, 130 nM. The figure for `Cc1nc(-c2cccc(Nc3nccc(NCC(O)c4ccccc4C)n3)c2)cs1` (configuration not stated) is 890 nM; for `COc1ccc(-c2ccc(NC(=O)c3ccc(C#N)cc3)cc2)cc1CN1CCC(O)CC1` it is 580 nM.

Turning to `CCn1ccc2c(N3CCCCS3(=O)=O)cc(C(=O)N[C@@H](Cc3ccccc3)[C@H](O)CNC(C)(C)CCCC(C)C)cc21`, the IC50 was 420 nM. The figure for `CCCNCc1ccc(-c2ccc(CN(Cc3ccc4c(c3)OCO4)C(=O)[C@H]3CCCO3)cc2)nc1` is 810 nM; for `CC(C)Cc1ccc(N2CCN(CCCCNC(=O)c3ccc(NC(=O)c4cc(C(F)(F)F)cc(C(F)(F)F)c4)cc3)CC2)cc1` it is 180 nM. Under `Cc1ccc2nc(C)cc(NN=Cc3cccc(F)c3)c2c1` stands 630 nM. Under `CC(C)N(CC(=O)c1ccc(O)c(C(=O)O)c1)Cc1ccccc1` stands 190 nM. As to `COc1cc(C(=O)NC2CCC(CN3CCC(c4c[nH]c5ccccc45)CC3)CC2)cc(Cl)n1` (configuration not stated), the IC50 turned out to be 690 nM.

`CCOc1ccc2nc(C)cc(NN=Cc3ccccc3F)c2c1`: the IC50 was 740 nM.

Compound `CN(C)c1ccc(-c2ccc(C(=O)NC3CCN(Cc4ccc(F)cc4)CC3)s2)cc1` displayed an IC50 of 1050 nM. Under `Cc1cccc(C(=O)Nc2ccnc(N(C)CCCN(C)Cc3cccc(O)c3)c2)c1` stands 970 nM; under `CC(=O)Nc1ccc(CN2CCC(NC(=O)c3ccc(-c4cccc(C(F)(F)F)c4)s3)CC2)cc1`, 890 nM; under `O=C(Nc1cccc(C(F)(F)F)c1)c1cccc(S(=O)(=O)NCC2CCCN(CC3CCCCC3)C2)c1` (configuration not stated), 880 nM. The figure for `Oc1cccc(-c2nc(-c3cccc(I)c3)c(-c3ccc(-c4nc(-c5cccc(O)c5)[nH]c4-c4cccc(I)c4)cc3)[nH]2)c1` is 920 nM.

Turning to `CCNc1cc(C)nc(Nc2ccc(NS(=O)(=O)c3ccccc3)cc2)n1`, the IC50 is 790 nM.

Compound `NC(N)=NC(=O)Nc1ccc(Cl)c(Cl)c1` showed an IC50 of 1040 nM. The compound `COc1c(C2CCN(CCCCNC(=O)c3ccc(-c4ccc(C#N)cc4)c(O)c3)CC2)ccc2c1CCCC2` showed an IC50 of 200 nM. Against the preceding compound, the IC50 is about 5.2-fold lower. `CN(C)C(=O)CC(=O)NCc1cccc(Cl)c1`: the IC50 was 710 nM. This IC50 lies about 3.5-fold higher than the previous one. The figure for `Cc1cccc2[nH]c(-c3cccc(-c4ccc(NC(=O)C(C)C(=O)NC(C)C)cc4)c3)nc12` (configuration not stated) is 1000 nM. The figure for `COc1ccc(CN(C)CCOc2ccc(NC(=O)c3cccc4c(=O)c5cc(SC)ccc5[nH]c34)cc2)cc1OC` is 880 nM.

The compound `OCC1CCN(Cc2ccc(-c3ccc(-c4nc5ccc(F)cc5[nH]4)cc3)cc2)CC1` came in with an IC50 of 840 nM.

`c1ccc(-c2ccc3c(Nc4ccc5[nH]ccc5c4)ccnc3c2)nc1` yielded an IC50 of 940 nM.

With `CS(=O)(=O)CCNCc1cccc(-c2cc3c(Nc4ccc5c(cnn5Cc5ccccc5)c4)ncnc3s2)c1`, the IC50 is 550 nM. Under `COc1ccccc1C1CCN(C2CCC(NC(=O)/C=C/c3cc(C(F)(F)F)cc(C(F)(F)F)c3)CC2)CC1` (configuration not stated) stands 1200 nM; under `Cc1ccccc1CCNC(=O)c1cnc(N2CCN(c3ccncc3)CC2)c(Cl)c1`, 1060 nM; under `COc1c(C)[nH]c(C)c(-c2ccc(Oc3cccc(C(F)(F)F)c3)cc2)c1=O`, 310 nM. With `Cc1cccc2[nH]c(-c3cccc(-c4ccc(NC(=O)CS(C)(=O)=O)cc4)c3)nc12`, the IC50 stood at 1000 nM.

`Clc1ccc(-c2cc(-c3csc(Nc4ccncc4)n3)on2)cc1`: the IC50 came to 130 nM. Against the preceding compound, the IC50 is about 7.7-fold lower.
